We go through ten substances from patent US8133984B2, “Oligonucleotides comprising signalling pairs and hydrophobic nucleotides, stemless beacons, for detection of nucleic acids, methylation status and mutants of nucleic acids” (PENTABASE ApS, priority 2006, dated 2012).

What all share (assay type): binding
The test system of one data set is Bgal_WT_tar oligo target. In words: Affinity of stemless probes to single stranded oligo target (melt 25-90° C.). To be noted: for Signal (25° C.): fluorescence at 25° C., hybridised to oligo target; for Signal (25° C.) / Signal (90° C.): 280 mM NaCl, 20 mM Na2HPO4 buffer; for Signal (90° C.): fluorescence at 90° C. From the text:
This example illustrates how stemless beacons comprising hydrophobic modifications of the structure: X—Y-Q where X is a backbone monomer unit linked to the oligo by phosphordiester bonds and of the structure —O—CH2—CH2—O—, Y is a —CH2—O—CH2— linker and Q is 1′-pyrene, will have higher affinity towards a fully complementary target sequence than a probe not comprising said hydrophobic modifications.
It can be seen from FIG. 13 that all stemless beacons have the similar or higher affinity for the complementary oligo nucleotide target compared to the corresponding DNA. Furthermore it can be calculated that all of the stemless beacons presented in this example (exclusive probe—1) have a similar or higher signal-to-noise ratio than the DNA probe without hydrophobic modifications (signal at 25 degrees divided by signal at 90 degrees).

For another data set, the system named is matched DNA target. In words: Melting temperature experiment (dissociation curve) of probe hybridised to matched DNA target. The conditions noted are these: for difference between hybridisation temperature to matched and mismatched target: FIG. 3, matched versus mismatched target; for temperature at which the probe hybridises to its matched target: FIG. 3, negative derivative of dissociation curve, 4 mM MgCl2, 50 mM KCl, 10 mM TRIS-HCl, pH=8.0. As for the experimental part:
(§1) The measurement was done as a melting temperature experiment on a Mx3000, Stratagene Real-time PCR instrument in a 96-well plate. The measurements were done in a buffer solution reflecting the buffer solutions used in a normal Real-time PCR reaction. The buffer contained 4 mM MgCl2, 50 mM KCl, 10 mM TRIS-HCl, pH=8.0. 1 μL of the Stemless Beacon (5 pmol/μL) and 2 μL of the DNA target sequence (5 pmol/μL) and 22 μL of the buffer mentioned above. First the mixtures were heated to 95° C. for 1 min to denature the secondary structures followed by annealing of the duplexes at 35° C. and ramping up to 95° C. while measuring the signal for every degrees change. Results are shown in FIG. 2, and other details like the sequences of the Stemless Beacons can be seen in the legend to said Figure.
(§2) The Measurements were carried out as described in example 2 above. Result and sequence information can be found in FIG. 3 and in the legend to said figure. The results are shown as the first derivative of the signal against temperature.

For the next data set, the system named is mismatched DNA target. Kind of data set: Melting temperature experiment (dissociation curve) of probe hybridised to mismatched DNA target. The conditions noted are these: for temperature at which the probe hybridises to its mismatched target: FIG. 3, negative derivative of dissociation curve, 4 mM MgCl2, 50 mM KCl, 10 mM TRIS-HCl, pH=8.0. As for the experimental part:
as §1, §2

The test system of data set [1] is nucleotide 2074 of human Andrenogen receptor, wild type (THP cDNA) and A→G mutant (LNCap cDNA). In words: Real-time PCR SNP detection, fluorescence read at 55, 61 and 65° C. As for the experimental part:
(§3) A test was setup to see if the used combination of probes would be able to distinguish between the wildtype and the A→G transition mutant. Measurements in this example were carried out on the Real-time PCR machine Rotorgene™ 3000 from Corbett Research.
(§4) In this experiment the mut. specific probe was added together with wt. specific probe in a homogenous assay. The label 1 means the inserted pseudonucleotide or hydrophobic nucleotide (Phosphoramidite of (S)-1-(4,4′-dimethoxytriphenylmethyloxy)-3-pyrenemethyloxy-2-propanol) comprising the hydrophobic, intercalating molecule pyrene (with the number XII from the description above). The label 2 means the inserted pseudonucleotide or hydrophobic nucleotide (Phosphoramidite of 3-(1-O-(4,4′-dimethoxytriphenylmethyl)-2-O-(2-cyanoethyl diisopropylamidophosphite)-1,2-butandiol)-4-N-(7,9-Dimethyl-3H-pyrido[3′,2′:4,5]thieno[3,2-d]pyrimidin-4-one)) (comprising the intercalating hydrophobic group with the number XXVI from the description above). FAM and Hex are fluorophores and BHQ1 is a quencher.
(§5) The template: 2 samples of each with cDNA extracted from either LNCap (mutant) and/or THP (wt) (6 samples overall).
(§6) The Real-Time PCR profile used is depicted in FIG. 14B.

For data set [2] the test system is unchanged. In words: End-point affinity measurements on FAM and HEX channel, SNP detection. As for the experimental part:
as §3, §4, §5, §6

Where [3] appears, read: Example 2, FIG. 2, methylated/unmethylated bisulphite treated DNA target.

“Also recorded” adds a separate entry of the source. {FAM} = fluorescein (FAM) fluorophore label; {BHQ1} = Black Hole Quencher 1

In the case of “5′-Fam A1C CGA CCC AGC GCC 1C BHQ1-3′ [Probe _2]”, in the data set on Bgal_WT_tar oligo target, the “Signal (25° C.)” value is given as 34.12 and the “Signal (90° C.)” value is recorded as 4.7.
For “5′-Fam ACC G1A CCC AGC 1GC CC BHQ1-3′ [Probe _5]”, in the data set on Bgal_WT_tar oligo target, the “Signal (25° C.)” value is 50.57 and the “Signal (90° C.)” value is reported as 7.81.
Take “5′-Fam ACC GA1 CCC AG1 CGC CC BHQ1-3′ [Probe _6]”: in the data set with Bgal_WT_tar oligo target, the “Signal (25° C.)” value is 77.01 and the “Signal (90° C.)” value amounted to 12.85.
As to “5′-Fam ACC GAC 1CC A1G CGC CC BHQ1-3′ [Probe _7]”, in the data set on Bgal_WT_tar oligo target, the “Signal (25° C.)” value turned out to be 46.92 and the “Signal (90° C.)” value is 7.98.
For “5′-Fam ACC GAC CCA GCG CCC BHQ1-3′ (DNA ACCGACCCAGCGCCC; reference probe without hydrophobic nucleotides, sugar not given here, further chemistry not given here) [Probe _ref (DNA), DNA probe without hydrophobic modifications, reference compound]”, in the data set with Bgal_WT_tar oligo target, the “Signal (25° C.)” value is reported as 38.11 and the “Signal (90° C.)” value is on record as 8.65. In addition, the Signal-to-noise in the data set with Bgal_WT_tar oligo target (signal at 25 degrees divided by signal at 90 degrees) stood at 4.41.
For the substance “FAM-A2AAA2ATCCCG2CGA2ACT-BHQ1 (DNA ANAAANATCCCGNCGANACT; FAM, BHQ1, 4 hydrophobic pseudonucleotide insertions, chemistry not fully specified) [Stemless Beacon]”, the “melting temperature of the probe against the fully matched target” value in the data set on matched DNA target (setting [3]) came out at 67 °C. In the data set on matched DNA target (FIG. 2, 35 to 95° C.), the “background fluorescence (fluorescence of unbound probe) compared to the Stemless DNA probe” value was “significantly reduced background fluorescence; also recorded: much lower”. In addition, the “melting temperature of the probe against the mismatched target” value in the data set with mismatched DNA target (setting [3]) was 56 °C.
Take “FAM-ATTTTAGGGCGTTTTTTTG-BHQ1 (DNA, 5' {FAM}, 3' {BHQ1}, backbone not given here) [reference compound]”: in the data set on matched DNA target, the “difference between hybridisation temperature to matched and mismatched target” value amounted to 7.8 °C; the “temperature at which the probe hybridises to its matched target” value was found to be 64.9 °C. For the same substance, the “temperature at which the probe hybridises to its mismatched target” value with mismatched DNA target stood at 57.1 °C.
For the substance “FAM-T1CAAA1AGTGA1ACTG1AT-BHQ1 (DNA TNCAAANAGTGANACTGNAT; DNA probe with hydrophobic pseudonucleotide insertions denoted 1, structure not given here, further chemistry not given here) [wt specific probe, wild type specific probe; 1 = pyrene pseudonucleotide]”, the “binding of probe in real-time PCR” value was “binds to both the wild type target and the mutant” in data set [1] (at 55° C.); “only a specific signal from wt probe is obtained” in data set [1] (at 61° C.); “only binding to its specific target” in data set [1] (at 65° C.). Moreover, the “width of window of specific hybridisation” value in data set [2] (FAM channel) is on record as “approximately 5 degree”.
Consider “FAM-T2AGG2GCGT2TTTT2T-BHQ1 (DNA TNAGGNGCGTNTTTTNT; FAM, BHQ1, intercalating pseudonucleotide insertions, further chemistry not given here) [SB, 2 = inserted pseudonucleotide comprising intercalating hydrophobic group XXVI]”, for which, in the data set on matched DNA target, the “difference between hybridisation temperature to matched and mismatched target” value is 13.8 °C; the “temperature at which the probe hybridises to its matched target” value stood at 63.7 °C. Moreover, the “specificity higher than Stemless DNA probe having the same affinity” value in the data set on matched DNA target (measured as difference in affinity to a matched versus a mismatched target) was 77%. Besides, the “temperature at which the probe hybridises to its mismatched target” value in the data set with mismatched DNA target is 49.9 °C.
As for “HEX-2TCAAA2AGCGA2ACTG2AT-BHQ1 (DNA NTCAAANAGCGANACTGNAT; pseudonucleotide insertions denoted 2, identity not given here, further chemistry not given here) [mut. specific probe, mutant specific probe; 2 = pseudonucleotide with hydrophobic group XXVI]”, the “binding of probe in real-time PCR” value is “hybridising specifically to its target” in data set [1] (at 55° C.), “worked fine” in data set [1] (at 61° C.) and “no longer binding” in data set [1] (at 65° C.). The “width of window distinguishing fully complementary from single nucleotide mismatched target” value in data set [2] (HEX channel, at temperatures above 55° C.) is “at least 10 °C”.
